Results from publication PMC12119673, “Apoptotic cell death induced by copper (II), manganese (II) and silver (I) complexes containing bridging dicarboxylate and 1,10-phenanthroline ligands: one of the multi-modes of anticancer activity?” (Biometals, 2025).

What was measured:
[1] = system: caspase-3/7 in MCF-12A cells; test: Caspase 3/7 expression, FLICA (FAM-DEVD-FMK) flow cytometry; format: cell-based, human; conditions: IC25 concentration, 24 h
Description: The expression of caspase-3/7 in MCF-7 and MCF-12A cells was determined using the VybrantTM FAM™ Caspase-3 and Caspase-7 Assay Kit (Cat# V35118) (Thermo Fisher Scientific, Ireland). Cells were seeded at a density of 1 × 10^5 in T25 flasks and incubated in routine conditions for 24 h. […] Post-exposure, the cells were harvested for staining.
Flow cytometry data analysis was performed with the CytExpert package (Ver. 2.4) (Beckman Coulter, USA) and Microsoft^Ⓡ Excel (USA). The mean MFI and percentage cells were calculated using these packages, followed by one-way ANOVA analysis with post hoc Bonferroni correction using GraphPad Prism (Ver. 9.4) (GraphPad, USA).
The expression of caspase-3/7 was analysed in MCF-7 and MCF-12A cells using fluorescent labelled inhibitors of caspase (FLICA): FAM-DEVD-FMK. […] Following the apoptosis induction study, it was of interest to determine whether the complexes were stimulating the executioner caspases triggering the irreversible proteolytic degradation of cells, culminating in cell death. […] These three complexes were selected based on their structural similarities, while incorporating alternative metal centres.

[2] = In vitro cytotoxicity assessment, alamar blue assay, 24-h exposure; format: cell-based, human; conditions: human, MCF-12A cells; MCF-12A, 24-h exposure, 50% reduction in metabolic activity, mean ± SD (N = 3); read-out: Cytotoxic activity IC50 ± SD
Description: The MCF-7 (human breast cancer) and MCF-12A (non-tumourigenic human breast) cell lines were obtained from the Technological University Dublin (TUDublin, City Campus) internal cell bank and commercially from the American Type Culture Collection (ATCC), respectively. Both cell lines were cultured using Dulbecco’s Modified Eagle Medium/Nutrient Mixture F-12 Ham (DMEM-F12) (Sigma, Ireland) (Cat# D6421) media. The MCF-7 media was supplemented with 10% Foetal Bovine Serum (Sigma, Ireland) (Cat# F7524) and 1% L-Glutamine (Sigma, Ireland) (Cat# 592020C). The MCF-12A media was supplemented with 5% Equine Serum (Sigma, Ireland) (Cat# H0146) 1.25% L-Glutamine (Sigma, Ireland) (Cat# 592020C), 20 ng/ml Human Epidermal Growth Factor (Thermo Fisher Scientific, Ireland) (Cat# PHG0313), 0.01 mg/ml insulin (Thermo Fisher Scientific, Ireland)(Cat# 12585014) and 500 ng/ml hydrocortisone (Sigma, Ireland) (Cat# H0888). The cells were grown in T75 culture flasks (Sarstedt, Germany) (Cat# 83.3911.002) and were incubated in a 5% CO2 atmosphere at 37 ℃. The cells were monitored daily, and once 80–90% confluence was reached, they were subcultured with an enzymatic dissociation method using trypsin. Both cell lines were routinely subcultured for 1 week prior to beginning experimental work, to ensure the cells had adapted to the environment.
The MCF-7 and MCF-12A cells were seeded at a density of 1 × 10^4 in 96-well flat bottom plates (Sarstedt, Germany) (Cat# 83.3924) and incubated in a 5% CO2 atmosphere at 37 ℃ for 24 h prior to exposure to the complexes. Following the incubation period, the media was removed, and cells were washed with sterile phosphate-buffered saline (PBS). […] All agents were diluted in supplemented cell culture media, and the cells were exposed to a concentration range of 0.5 μM–100 μM for 24 h in the conditions outlined previously. Following the exposure period, the drug-containing media was removed, and cells were washed three times with PBS, ensuring complete removal of the test agents. A 5% working solution of Alamar Blue (Thermo Fisher Scientific, Ireland) (Cat# DAL1100) was prepared in dark conditions using unsupplemented cell culture media. 100 μl of the solution was added to each well, and the cells were incubated for 3 h. Following incubation, absorbance values were obtained using a Varioskan Lux (Thermo Scientific, USA) at 570 nm and 600 nm wavelengths. Each exposure was carried out in triplicate plates and was repeated three independent times.
The software packages Microsoft^Ⓡ Excel (USA) and GraphPad Prism (Ver. 10.0.3) (GraphPad, USA) were used to analyse the alamar blue data. The treated sample values were first normalised to the negative control values. After normalisation, the mean and standard deviations (SD) were established using Microsoft^Ⓡ Excel. The statistical analysis package GraphPad was then used to determine the IC25 and IC50 concentrations. […] A p value of 0.05 or lower is considered to be statistically significant.

Row | Structure (SMILES) | Expression of caspase-3/7 (% cells) [1] | IC50 at 24 h [2] [µM]
1 | O=C([O-])CCCCCCC(=O)[O-].[Ag+].[Ag+].c1cnc2c(c1)ccc1cccnc12.c1cnc2c(c1)ccc1cccnc12.c1cnc2c(c1)ccc1cccnc12 [Complex 4, [Ag2(oda)(phen)3]] | highest expression | 
2 | c1cnc2c(c1)ccc1cccnc12 [Phen, 1,10-Phenanthroline] |  | 20.9 ± 1.96
